Source: patent EP2266963A1, “Fluorogenic peptidase substrate” (ECOLE NORMALE SUPERIEURE DE LYON, priority 2009, dated 2010)

Columns and labels:
leucyl aminopeptidase [1] = test: Time-dependent fluorescence signal evolution with pure enzyme in LB medium, with or without inhibitor; assay type: biochemical; settings: 37°C
Description: Scheme 3 presents the reaction cascade initiated by cleavage of the substrate 1 or 2 by a target peptidase. [drawing 5] • Figure 1 (ordinate in arbitrary fluorescence units a.u.) represents the emission spectra (λexc = 365 nm) of substrate 2 (20 µM) before (curve a) and after incubation with leucyl aminopeptidase for 1 h (curve b) at 25 °C in Tris-HCl buffer. The experiment was monitored with a standard multi-well plate fluorescence spectrophotometer (Spectramax Gemini by Molecular Devices). • Figure 2 presents a fluorogenic test (λexc = 365 nm, λem = 495 nm) at 25 °C for the activity of leucyl aminopeptidase in Tris-HCl (25 mM, pH 7.4) using 38 µM of substrate 1 or 2 , and 0.02 U mL^-1 of leucyl aminopeptidase. The following curves for time-dependent fluorescence signal evolution were obtained : (a) substrate 2 with enzyme, (b) substrate 1 with enzyme (c) substrate 2 without enzyme but with added bovine serum albumin (0.1 mg mL^-1), (d) substrate 1 without enzyme but with added bovine serum albumin (0.1 mg mL^-1). • Figure 3 presents the time-dependent signal evolution obtained with pure enzyme in complex LB (Lysogeny broth) medium (from Fisher, "LB Broth Lennox", ref 240230) rather than in pure buffer (TRIS-HCl).
(§1) Substrate 2 concentration : 6 µM; enzyme : leucyle aminopeptidase (0.01 U); 37°C; LB medium; emission wavelength : 495 nm; Spectramax Gemini from Molecular Device.
Figure 4 presents the time-dependent signal evolution obtained with pure enzyme in LB medium in the presence or absence of a standard aminopeptidase inhibitor (bestatine).
Substrate 2 concentration : 6 µM; enzyme : leucyle aminopeptidase (0.01 U); inhibitor concentration : 10 nM; 37°C; LB medium; emission wavelength : 495 nm ;

[2] = system: bacterial cell line : DH5a; test: Incubation of substrate with bacterial cells at wild-type aminopeptidase level in LB medium; assay type: cell-based, E-Coli; settings: Figure 5, 6 µM substrate added in exponential growth phase (absorbance 0.6 to 0.8), 37°C, emission 495 nm
Description: (§2) Substrate 2 concentration : 6 µM; bacterial cell line : DH5a (Invitrogen); 37°C; LB medium; emission wavelength : 495 nm. Substrate 2 is added during the exponential growth phase at an absorbance of 0.6 to 0.8.

[3] = Spontaneous degradation of substrate in LB medium without enzyme or cells (background fluorescence signal); assay type: physicochemical; settings: 37°C, emission 495 nm
Description: as §1, §2

leucyl aminopeptidase [4] = test: Fluorogenic test for leucyl aminopeptidase activity in Tris-HCl buffer; assay type: biochemical; settings: Figure 2 curve a; substrate with enzyme; TRIS-HCl buffer 25 mM pH 7.4; 38 µM substrate; 0.02 U mL^-1 enzyme; 25 °C; λexc 365 nm, λem 495 nm
Description: Column chromatography was performed using silicagel Si 60 (40-63 µm). ^1H and ^13C NMR spectra were recorded at 200.13 MHz, 50.13 MHz, respectively. Chemical shifts (δ) are reported in ppm (s = singlet, d= doublet, t = triplet, m = multiplet, br = broad) and quoted with reference to tetramethyl silane or from solvent signals. NMR coupling constants (J) are reported in Hertz. Fluorescence assays were carried out in black roundbottom polypropylene 96-well-plates (NUNCLONE, Nunc Inc.) and recorded on a microplate spectrofluorimeter (Gemini XPS by Molecular Devices).
Scheme 3 presents the reaction cascade initiated by cleavage of the substrate 1 or 2 by a target peptidase. [drawing 5] • Figure 1 (ordinate in arbitrary fluorescence units a.u.) represents the emission spectra (λexc = 365 nm) of substrate 2 (20 µM) before (curve a) and after incubation with leucyl aminopeptidase for 1 h (curve b) at 25 °C in Tris-HCl buffer. The experiment was monitored with a standard multi-well plate fluorescence spectrophotometer (Spectramax Gemini by Molecular Devices). • Figure 2 presents a fluorogenic test (λexc = 365 nm, λem = 495 nm) at 25 °C for the activity of leucyl aminopeptidase in Tris-HCl (25 mM, pH 7.4) using 38 µM of substrate 1 or 2 , and 0.02 U mL^-1 of leucyl aminopeptidase. […]

time at which fluorescence signal reaches a plateau (leucyl aminopeptidase [1]; Figure 3, LB+E+substrate 2, 6 µM substrate, enzyme 0.01 U, emission 495 nm) | time at which signal reaches the same level as the uninhibited reaction (leucyl aminopeptidase [1]; Figure 4, LB+E+I+substrate 2, inhibitor bestatine 10 nM, 6 µM substrate, enzyme 0.01 U) [h] | time at which fluorescence signal reaches a plateau (uninhibited reaction) (leucyl aminopeptidase [1]; Figure 4, LB+E+substrate 2, no inhibitor, 6 µM substrate, enzyme 0.01 U, emission 495 nm) | time at which signal plateaus in the absence of enzyme ([3]; Figure 3, LB+substrate 2, 6 µM substrate) | time at which signal reaches a plateau through slow degradation of the substrate ([3]; Figure 5, LB + substrate 2, no cells, 6 µM substrate) [h] | time at which fluorescence signal reaches a plateau (leucyl aminopeptidase [4]) [h] | SMILES | effect of inhibitor on signal evolution (leucyl aminopeptidase [1]; Figure 4, inhibitor 10 nM, 6 µM substrate 2, enzyme 0.01 U) | time at which signal reaches a plateau on incubation with cells [2] [h]
– | – | – | – | – | – | CC(C)C[C@H](NC(=O)[C@@H](O)[C@H](N)Cc1ccccc1)C(=O)O [inhibitor (I), bestatine, reference compound] | a delay in signal evolution can be detected | –
approximately 1 hour | 2.5 | about 1.5 h | about 12 hours | 10 | 0.5 | CC(C)C[C@H](N)C(=O)NCCC(C)(C)C(=O)OCOc1ccccc1-c1nc2ccccc2c(=O)[nH]1 [substrate 2] | – | 2.5
